In patent US20210317401A1, “USE OF CYSTEINE OR SALT THEREOF FOR CRYOPROTECTING LACTIC ACID BACTERIA” (CJ CHEILJEDANG CORPORATION, priority 2018, published 2021):

Tests used:
[1] = tested on: Lactobacillus plantarum CJLP133; experiment: High-concentration culturing of lactic acid bacteria, O.D. value; assay type: cell-based; settings: 0.1% in MRS liquid medium; from O.D. results
Description: (§1) A Lactobacillus plantarum CJLP133 strain was cultured at 37° C. for 11 hours in an MRS liquid medium (Difco, USA) containing 0.1% of cysteine monohydrochloride.
(§2) A Lactobacillus plantarum CJLP133 strain was cultured at 37° C. for 11 hours in an MRS liquid medium (Difco, USA) not containing 0.1% of cysteine monohydrochloride.
The evaluation of the lactic acid bacteria culturing was measured by diluting a lactic acid bacteria culture solution 20 times at 600 nm using a spectrophotometer (NanoPhotometer, IMPLEN) according to the method for measuring an optical density (O.D.) value of Korean Food Additives Codex.

[2] = tested on: Lactobacillus plantarum CJLP133; experiment: High-concentration culturing of lactic acid bacteria, number of live bacteria; assay type: cell-based; settings: 0.1% in MRS liquid medium; from live bacteria counts
Description: as §1, §2
A lactic acid bacteria culture solution was diluted with sterilized physiological water and smeared so that 30 to 300 colonies were formed in an MRS agar plate medium, and then cultured at 37° C. for 24 hours. The number of colonies observed after the culturing was counted and calculated as the number of live bacteria per mL.

Cl.N[C@@H](CS)C(=O)O [cysteine monohydrochloride]
ability to accelerate the growth of lactic acid bacteria (in words) [1]: excellent | ability to accelerate the growth of lactic acid bacteria (in words) [2]: excellent
